The assay concerns the target NC1 (DGCR8 dimer) (Homo sapiens, UniProt Q8WYQ5, P351A). Kind of assay: biochemical.

Sequence of NC1 (DGCR8 dimer) (Q8WYQ5 276-751 P351A): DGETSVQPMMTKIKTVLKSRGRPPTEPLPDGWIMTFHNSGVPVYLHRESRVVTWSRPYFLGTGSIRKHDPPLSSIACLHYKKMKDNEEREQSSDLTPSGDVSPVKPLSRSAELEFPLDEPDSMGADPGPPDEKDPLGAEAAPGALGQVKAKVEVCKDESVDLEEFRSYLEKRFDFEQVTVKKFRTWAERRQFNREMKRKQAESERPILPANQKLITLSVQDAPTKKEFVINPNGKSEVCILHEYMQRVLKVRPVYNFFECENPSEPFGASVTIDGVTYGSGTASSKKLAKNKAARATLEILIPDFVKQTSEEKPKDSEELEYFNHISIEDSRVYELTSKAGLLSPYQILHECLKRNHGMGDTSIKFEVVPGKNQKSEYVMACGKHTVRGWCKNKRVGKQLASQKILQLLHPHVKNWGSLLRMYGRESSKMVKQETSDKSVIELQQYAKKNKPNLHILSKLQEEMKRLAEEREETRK

Usually Kd stands for the equilibrium constant for the complex coming apart. Read a high Kd as a looser complex. As for `C=CC1=C(C)C2=Cc3c(C=C)c(C)c4[n]3[Fe]([Cl])[n]3c(c(C)c(CCC(=O)O)c3=CC3=NC(=C4)C(C)=C3CCC(=O)O)=CC1=N2` [Fe(III) heme], the Kd is approximately 5 pM.

(Values after publication doi:10.1101/2020.02.18.955294v1 (biorxiv, 2020).)
